The subject of this test is complement. As to the kind of experiment: Inhibition of complement mediated hemolysis. To be noted: read-out: Inhibition of complement mediated hemolysis (%). Format: cell-based.

Like-named read-outs stand apart in the source and are kept apart here.

Protocol: The complement mediated hemolysis is widely used as a means to determine the titration of complement. The principle of this method is based on the fact that hemolysis is caused by the activation of complement, when the latter is added to a complex (immune complex) of erythrocytes and the autibody thereof. The degree of hemolysis varies in proportion to the amount of complement added. Therefore, when a known amount of complement admixed with a C1 esterase inhibitor is used, the hemolysis must be suppressed in proportion to the inhibitory activity.
The anti-C1 esterase (C1r, C1s) activity was determined according to the method of Okamura et al. [K. Okamura, M. Muramatsu and B. Fujii, Biochem. Biophys. […] The inhibition of complement mediated hemolysis was determined according to the method of Baker et al. [B. R. Baker and E. H. Erickson, J. Med. Chem., 12, 408-414 (1969)].

Usually inhibition stands for the share of the control response that was lost under treatment. Turning to `Cc1cccc(C(=O)Oc2ccc(C=CC(=N)N)cc2)c1` [Compound 19], the inhibition at 0.1 µM stood at 37%. The inhibition at 100 µM (1 × 10^-4 M) was 95%. Further, the inhibition at 10 µM (1 × 10^-5 M) was found to be 98%. For the same compound, the inhibition at 1 µM (1 × 10^-6 M) stood at 65%.

In the case of `N=C(N)C=Cc1ccc(OC(=O)C2CCCCC2)cc1` [Compound 6], the inhibition at 100 µM (1 × 10^-4 M) was found to be 99%. For the setting “1 × 10^-5 M”, the inhibition at 10 µM was found to be 93%. Also, the inhibition at 1 µM (1 × 10^-6 M) turned out to be 14%. Where the note is “1 × 10^-7 M”, the inhibition at 0.1 µM came to 0%.

As for `COc1ccc(C(=O)Oc2ccc(C=CC(=N)N)cc2)cc1` [Compound 23], the inhibition at 100 µM (1 × 10^-4 M) was 98%. Moreover, the inhibition at 10 µM (1 × 10^-5 M) was found to be 99%. Also, the inhibition at 1 µM (1 × 10^-6 M) was determined as 94%. Further, where the note is “1 × 10^-7 M”, the inhibition at 0.1 µM is 42%.

Take `COc1ccc(C(=O)Oc2ccc(C=CC(=N)N)cc2)cc1OC` [Compound 24]: where the note is “1 × 10^-4 M”, the inhibition at 100 µM stood at 76%. Further, the inhibition at 10 µM (1 × 10^-5 M) came to 20%. The inhibition at 1 µM (1 × 10^-6 M) stood at 8%. In addition, the inhibition at 0.1 µM (1 × 10^-7 M) was found to be 0%.

On to `N=C(N)C=Cc1ccc(OC(=O)C=Cc2ccccc2)cc1` [Compound 17, 4-(β-amidinoethenyl)phenyl cinnamate], for which the inhibition at 1 µM stood at 83%. Also, where the note is “1 × 10^-4 M”, the inhibition at 100 µM came out at 93%. The inhibition at 10 µM (1 × 10^-5 M) was 97%. In addition, the inhibition at 0.1 µM (1 × 10^-7 M) came out at 58%.

On to `Cc1ccc(C(=O)Oc2ccc(C=CC(=N)N)cc2)cc1C` [Compound 21], for which the inhibition at 10 µM amounted to 88%. Under “1 × 10^-4 M”, the inhibition at 100 µM came to 87%. The inhibition at 1 µM (1 × 10^-6 M) amounted to 37%. The inhibition at 0.1 µM (1 × 10^-7 M) worked out at 22%.

Consider `N=C(N)C=Cc1ccc(OC(=O)c2ccc(CNC(=O)OCc3ccccc3)cc2)cc1` [Compound 33], for which the inhibition at 10 µM came to 89% and the inhibition at 100 µM was 92%. The inhibition at 1 µM (1 × 10^-6 M) worked out at 29%. For the same compound, the inhibition at 0.1 µM (1 × 10^-7 M) amounted to 7%.

With `COC(=O)c1ccc(C(=O)Oc2ccc(C=CC(=N)N)cc2)cc1` [Compound 29], for the setting “1 × 10^-4 M”, the inhibition at 100 µM amounted to 98%. Besides, for the setting “1 × 10^-5 M”, the inhibition at 10 µM came out at 93%. Besides, the inhibition at 1 µM (1 × 10^-6 M) is 57%. Where the note is “1 × 10^-7 M”, the inhibition at 0.1 µM was 25%.

For the compound `CC(C)CC(=O)Oc1ccc(C=CC(=N)N)cc1` [Compound 2, 4-(β-amidinoethenyl)phenyl isovalerate], the inhibition at 1 µM was found to be 30%. For the same compound, the inhibition at 100 µM (1 × 10^-4 M) was 99%. Also, the inhibition at 10 µM (1 × 10^-5 M) was determined as 90%. For the same compound, the inhibition at 0.1 µM (1 × 10^-7 M) is 8%.

Turning to `N=C(N)C=Cc1ccc(OC(=O)c2ccc([N+](=O)[O-])cc2)cc1` [Compound 37], where the note is “1 × 10^-4 M”, the inhibition at 100 µM stood at 100%. Further, under “1 × 10^-5 M”, the inhibition at 10 µM stood at 99%. The inhibition at 1 µM (1 × 10^-6 M) came to 95%. For the same compound, the inhibition at 0.1 µM (1 × 10^-7 M) was 94%.

Take `N=C(N)C=Cc1ccc(OC(=O)C=Cc2ccccc2Cl)cc1` [Compound 40]: the inhibition at 10 µM came out at 3%. Under “1 × 10^-4 M”, the inhibition at 100 µM came out at 15%. Besides, the inhibition at 1 µM (1 × 10^-6 M) was 0%. Also, the inhibition at 0.1 µM (1 × 10^-7 M) came to 0%.

In the case of `N=C(N)C=Cc1ccc(OC(=O)c2ccc3c(c2)OCO3)cc1` [Compound 27], the inhibition at 100 µM (1 × 10^-4 M) was found to be 100%. The inhibition at 10 µM (1 × 10^-5 M) stood at 99%. Besides, the inhibition at 1 µM (1 × 10^-6 M) amounted to 88%. Further, the inhibition at 0.1 µM (1 × 10^-7 M) amounted to 44%.

Turning to `COc1ccc(CCC(=O)Oc2ccc(C=CC(=N)N)cc2)cc1` [Compound 25], for the setting “1 × 10^-4 M”, the inhibition at 100 µM is 62%. Besides, under “1 × 10^-5 M”, the inhibition at 10 µM was 0%. Further, the inhibition at 1 µM (1 × 10^-6 M) turned out to be 0%. Moreover, where the note is “1 × 10^-7 M”, the inhibition at 0.1 µM turned out to be 0%.

Turning to `CC(=O)Nc1ccc(C(=O)Oc2ccc(C=CC(=N)N)cc2)cc1` [Compound 31], the inhibition at 100 µM (1 × 10^-4 M) was determined as 98%. For the same compound, the inhibition at 10 µM (1 × 10^-5 M) amounted to 91%. For the same compound, for the setting “1 × 10^-6 M”, the inhibition at 1 µM is 65%. Moreover, the inhibition at 0.1 µM (1 × 10^-7 M) amounted to 25%.

Consider `N=C(N)C=Cc1ccc(OC(=O)CCCc2ccccc2)cc1` [Compound 16, 4-(β-amidinoethenyl)phenyl 4-phenylbutyrate], for which the inhibition at 100 µM was 96%. Where the note is “1 × 10^-5 M”, the inhibition at 10 µM was 34%. Also, where the note is “1 × 10^-6 M”, the inhibition at 1 µM was 0%. Besides, where the note is “1 × 10^-7 M”, the inhibition at 0.1 µM was found to be 0%.

These data come from US4490388A, “Amidine compound and anticomplement agent comprising same” (Torii & Co., Ltd., priority 1981, dated 1984).
